# Like-named read-outs stand apart in the source and are kept apart here.
# How the values were obtained:
# [1] = target: T1, panel of 255 wild-type kinases (Homo sapiens, UniProt Q9BZL6); assay: Kinase panel profiling at 1 µmol/L (MSA or IMAP), percentage inhibition; type: biochemical; conditions: kinase PKD2; 1 µmol/L single concentration; read-out: %-inhibition at 1 µmol/L, PKD2
# T1 sequence (Q9BZL6 1-878): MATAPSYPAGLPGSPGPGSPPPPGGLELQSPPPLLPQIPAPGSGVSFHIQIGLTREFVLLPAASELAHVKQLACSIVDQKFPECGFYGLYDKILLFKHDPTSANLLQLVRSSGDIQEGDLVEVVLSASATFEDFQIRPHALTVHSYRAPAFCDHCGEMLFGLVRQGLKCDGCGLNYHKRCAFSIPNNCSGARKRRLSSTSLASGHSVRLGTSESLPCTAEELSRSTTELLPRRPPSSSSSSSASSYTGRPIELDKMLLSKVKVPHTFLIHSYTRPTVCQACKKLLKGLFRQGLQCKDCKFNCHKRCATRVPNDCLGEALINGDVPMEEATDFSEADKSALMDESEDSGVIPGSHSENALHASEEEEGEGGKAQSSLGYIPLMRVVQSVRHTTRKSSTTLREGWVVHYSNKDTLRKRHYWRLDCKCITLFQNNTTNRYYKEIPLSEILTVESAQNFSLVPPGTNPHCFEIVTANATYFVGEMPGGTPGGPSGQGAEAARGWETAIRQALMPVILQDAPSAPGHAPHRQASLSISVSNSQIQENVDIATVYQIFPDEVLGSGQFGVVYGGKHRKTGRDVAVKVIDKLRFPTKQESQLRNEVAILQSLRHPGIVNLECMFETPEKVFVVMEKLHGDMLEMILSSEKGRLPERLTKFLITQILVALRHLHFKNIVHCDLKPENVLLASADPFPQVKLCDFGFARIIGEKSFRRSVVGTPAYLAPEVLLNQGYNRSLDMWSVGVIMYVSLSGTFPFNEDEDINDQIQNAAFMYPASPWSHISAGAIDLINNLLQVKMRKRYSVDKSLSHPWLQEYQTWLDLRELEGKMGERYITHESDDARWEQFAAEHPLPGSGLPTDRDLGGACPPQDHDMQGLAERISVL
# AP-1060 (ETV6-NTRK3) = assay: Cell viability assay; conditions: read-out: IC50 in cell proliferation assay
# 134 cancer cell lines = assay: Cell viability assay (ATPlite, 72 hours), IC50 on cancer cell line panel
smiles,measurement,setting,value
Cn1cc(-c2cc3c(N4CCN(c5ncc([C@@](C)(N)c6ccc(F)cc6)cn5)CC4)ncnn3c2)cn1 [avapritinib],inhibition at 1 µM,[1],-0.865%
same,IC50,AP-1060 (ETV6-NTRK3),3.46 µM
same,IC50,"134 cancer cell lines; HEC-6, read-out: IC50 in cell proliferation assay",20.9 µM
same,IC50,"134 cancer cell lines; Homo sapiens, 769-P, read-out: IC50 in cell proliferation assay",3 µM
same,IC50,"134 cancer cell lines; Homo sapiens, 786-0, read-out: IC50 in cell proliferation assay",11.8 µM
same,IC50,"134 cancer cell lines; Homo sapiens, A 172, read-out: IC50 in cell proliferation assay",5.91 µM
same,IC50,"134 cancer cell lines; Homo sapiens, A204, read-out: IC50 in cell proliferation assay",0.171 µM
same,IC50,"134 cancer cell lines; Homo sapiens, A498, read-out: IC50 in cell proliferation assay",15.4 µM
same,IC50,"134 cancer cell lines; Homo sapiens, A549, read-out: IC50 in cell proliferation assay",20.5 µM
same,IC50,"134 cancer cell lines; Homo sapiens, A704, read-out: IC50 in cell proliferation assay",22.7 µM
same,IC50,"134 cancer cell lines; Homo sapiens, A-375, read-out: IC50 in cell proliferation assay",17.8 µM
same,IC50,"134 cancer cell lines; Homo sapiens, A-427, read-out: IC50 in cell proliferation assay",8.02 µM
same,IC50,"134 cancer cell lines; Homo sapiens, ACHN, read-out: IC50 in cell proliferation assay",14.8 µM
same,IC50,"134 cancer cell lines; Homo sapiens, AN3-CA, read-out: IC50 in cell proliferation assay",18.1 µM
same,IC50,"134 cancer cell lines; Homo sapiens, ASPC1, read-out: IC50 in cell proliferation assay",> 31.6 µM
same,IC50,"134 cancer cell lines; Homo sapiens, AU565, read-out: IC50 in cell proliferation assay",10.1 µM
same,IC50,"134 cancer cell lines; Homo sapiens, BT-20, read-out: IC50 in cell proliferation assay",27.7 µM
same,IC50,"134 cancer cell lines; Homo sapiens, BT-474, read-out: IC50 in cell proliferation assay",7.71 µM
same,IC50,"134 cancer cell lines; Homo sapiens, BT-549, read-out: IC50 in cell proliferation assay",5.18 µM
same,IC50,"134 cancer cell lines; Homo sapiens, BXPC-3, read-out: IC50 in cell proliferation assay",0.292 µM
same,IC50,"134 cancer cell lines; Homo sapiens, C-33-A, read-out: IC50 in cell proliferation assay",4.64 µM
same,IC50,"134 cancer cell lines; Homo sapiens, CAL-27, read-out: IC50 in cell proliferation assay",11 µM
same,IC50,"134 cancer cell lines; Homo sapiens, CCF-STTG1, read-out: IC50 in cell proliferation assay",5.69 µM
same,IC50,"134 cancer cell lines; Homo sapiens, CCRF-CEM, read-out: IC50 in cell proliferation assay",8.33 µM
same,IC50,"134 cancer cell lines; Homo sapiens, COLO 205, read-out: IC50 in cell proliferation assay",10.7 µM
same,IC50,"134 cancer cell lines; Homo sapiens, COLO-829, read-out: IC50 in cell proliferation assay",10.1 µM
same,IC50,"134 cancer cell lines; Homo sapiens, DLD-1, read-out: IC50 in cell proliferation assay",15.2 µM
same,IC50,"134 cancer cell lines; Homo sapiens, DU-145, read-out: IC50 in cell proliferation assay",9.13 µM
same,IC50,"134 cancer cell lines; Homo sapiens, DU-4475, read-out: IC50 in cell proliferation assay",7.09 µM
same,IC50,"134 cancer cell lines; Homo sapiens, Daoy, read-out: IC50 in cell proliferation assay",27.8 µM
same,IC50,"134 cancer cell lines; Homo sapiens, DoTc2-4510, read-out: IC50 in cell proliferation assay",16.3 µM
same,IC50,"134 cancer cell lines; Homo sapiens, EOL1, read-out: IC50 in cell proliferation assay",0.000567 µM
same,IC50,"134 cancer cell lines; Homo sapiens, FaDu, read-out: IC50 in cell proliferation assay",9.3 µM
same,IC50,"134 cancer cell lines; Homo sapiens, G-361, read-out: IC50 in cell proliferation assay",9.28 µM
same,IC50,"134 cancer cell lines; Homo sapiens, HCC827, read-out: IC50 in cell proliferation assay",14 µM
same,IC50,"134 cancer cell lines; Homo sapiens, HCC4006, read-out: IC50 in cell proliferation assay",8.01 µM
same,IC50,"134 cancer cell lines; Homo sapiens, HCT-15, read-out: IC50 in cell proliferation assay",6.36 µM
same,IC50,"134 cancer cell lines; Homo sapiens, HCT-116, read-out: IC50 in cell proliferation assay",8.76 µM
same,IC50,"134 cancer cell lines; Homo sapiens, HEC-1, read-out: IC50 in cell proliferation assay",17 µM
same,IC50,"134 cancer cell lines; Homo sapiens, HEC-1B, read-out: IC50 in cell proliferation assay",8.74 µM
same,IC50,"134 cancer cell lines; Homo sapiens, HL-60, read-out: IC50 in cell proliferation assay",5.2 µM
same,IC50,"134 cancer cell lines; Homo sapiens, HT, read-out: IC50 in cell proliferation assay",22.9 µM
same,IC50,"134 cancer cell lines; Homo sapiens, HT-1080, read-out: IC50 in cell proliferation assay",9.14 µM
same,IC50,"134 cancer cell lines; Homo sapiens, Hs746T, read-out: IC50 in cell proliferation assay",1.81 µM
same,IC50,"134 cancer cell lines; Homo sapiens, Hs-578T, read-out: IC50 in cell proliferation assay",16.8 µM
same,IC50,"134 cancer cell lines; Homo sapiens, HuTu80, read-out: IC50 in cell proliferation assay",5.13 µM
same,IC50,"134 cancer cell lines; Homo sapiens, J82, read-out: IC50 in cell proliferation assay",24.4 µM
same,IC50,"134 cancer cell lines; Homo sapiens, Jurkat E6.1, read-out: IC50 in cell proliferation assay",4.07 µM
same,IC50,"134 cancer cell lines; Homo sapiens, K562, read-out: IC50 in cell proliferation assay",6.03 µM
same,IC50,"134 cancer cell lines; Homo sapiens, KATO III, read-out: IC50 in cell proliferation assay",6.66 µM
same,IC50,"134 cancer cell lines; Homo sapiens, KG-1, read-out: IC50 in cell proliferation assay",1.92 µM
same,IC50,"134 cancer cell lines; Homo sapiens, KLE, read-out: IC50 in cell proliferation assay",5.61 µM
same,IC50,"134 cancer cell lines; Homo sapiens, KMS-11, read-out: IC50 in cell proliferation assay",6.59 µM
same,IC50,"134 cancer cell lines; Homo sapiens, KU812, read-out: IC50 in cell proliferation assay",3.11 µM
same,IC50,"134 cancer cell lines; Homo sapiens, Kasumi 1, read-out: IC50 in cell proliferation assay",0.075 µM
same,IC50,"134 cancer cell lines; Homo sapiens, LC-2-ad, read-out: IC50 in cell proliferation assay",4.91 µM
same,IC50,"134 cancer cell lines; Homo sapiens, LNCaP-Clone-FGC, read-out: IC50 in cell proliferation assay",16 µM
same,IC50,"134 cancer cell lines; Homo sapiens, LS174T, read-out: IC50 in cell proliferation assay",6.55 µM
